For five molecules, zone of inhibition results are on record in ChEMBL document CHEMBL1150869, “Bombardolides: new antifungal and antibacterial gamma-lactones from the coprophilous fungus Bombardioidea anartia” (2001).

Holding throughout (assay type): functional
Holding throughout (conditions): read-out: IZ

The subject of one test is Bacillus subtilis. The test is described as follows: Antimicrobial activity against Bacillus subtilis ATCC 6051 at 200 ug/disk by standard disk diffusion method.
In another test the test system is Staphylococcus aureus. The test is described as follows: Antimicrobial activity against Staphylococcus aureus ATCC 29213 at 200 ug/disk by standard disk diffusion method. In general terms: Agar diffusion results depend on both activity and mobility in agar.
In the next test the test system is Candida albicans. Nature of the test: Antimicrobial activity against Candida albicans ATCC 10231 at 200 ug/disk by standard disk diffusion method.

As to `CC/C=C1C=C(/C=C/C(=O)O)C(=O)O/1`, the zone of inhibition at 200 µg/disc in the test with Bacillus subtilis came to 26 mm; in the test with Staphylococcus aureus it was 18 mm.

In the case of `CCCCC(O)c1cccc(O)c1` (centres undefined), the zone of inhibition at 200 µg/disc in the test with Bacillus subtilis worked out at 12 mm; in the test on Staphylococcus aureus, 19 mm.

On to `CC/C=C1C=C(/C=C/CO)C(=O)O/1`, for which the zone of inhibition at 200 µg/disc was determined as 19 mm in the test with Bacillus subtilis, 14 mm in the test on Staphylococcus aureus and 35 mm in the test with Candida albicans.

Regarding `CCCC1C=C(/C=C/CO)C(=O)O1` (centres undefined) [BOMBARDOLIDE D], in the test with Candida albicans, the zone of inhibition at 200 µg/disc came out at 20 mm.

With `CC/C=C1/C=C(CCCO)C(=O)O1` [(E/Z)-BOMBARDOLIDE B], the zone of inhibition at 200 µg/disc in the test with Bacillus subtilis was found to be 11 mm.
